# From patent US20230129866A1 (PureTech LYT 100, Inc., priority 2020, published 2023)
# Where two headings read alike, the source gives them in different places.
# Key:
# [1] = 91-day repeat dose oral toxicity and toxicokinetics study in rats; conditions: for Ratio of exposure (AUC), Group 4 (LYT-100 at 750 mg/kg) analyte / Group 5 (SD-559 at 750 mg/kg) analyte: LYT-100/SD-559, SD-790/SD-788, SD-1051/SD-1050, SD-789 Group 4/SD-789 Group 5; for Dose proportionality of AUC0-24 over 250 to 750 mg/kg / Dose proportionality of Cmax over 250 to 750 mg/kg: rats dosed with SD-560, Groups 2 to 4, general statement; for Cmax in rat relative to human: male rat Day 1 vs human; for Exposure in rats relative to humans after 28 days of daily dosing: male rat Day 28 vs human; for Exposure (AUC) in rat relative to human: male rats 750 mg/kg Day 1 vs human single 801 mg dose
# Protocol: The original male TK animals received 1000 mg/kg of SD-559 on Day 1 and continued on study. The protocol was amended to add additional TK male animals in Group 6 for Day 1 collection of TK samples at 875 mg/kg.
# Blood samples were collected from 3 subsets of 3 animals/sex on Day 1 and Day 28 at pre-dose, 0.25, 0.5, 1, 2, 4. 8 and 24 hours (hr) post-dose for groups 2 to 6 and from one subset of 3 animals/sex at 0.25 hr post-dose for the vehicle group (group 1). […] Non-compartmental analysis (NCA) of plasma concentration data was conducted using Phoenix® WinNonlin®, version 8.0.
# [2] = Phase 1 multiple ascending dose (MAD) study Part 1, healthy volunteers (PK and safety); conditions: for Accumulation ratios (AUC96-108/AUC0-12) across all dose groups: 100 mg, 250 mg, 500 mg, and 750 mg BID, Cohorts 1-4, FIG. 19; for Average ratio to the parent (M/P) by AUC: range in brackets
# Protocol: Up to 5 dosing cohorts are planned in Part 1.
# Additional cohorts and intermediate doses may be selected in lieu of predefined doses as noted and in accordance with safety and tolerability responses, but doses will not exceed 1000 mg BID or a total daily dose of 2000 mg.
# A standardised lunch will be served ≥4 h post breakfast and ≥4 h prior to dinner. An evening snack will be served ≥3 h following evening study medication administration. No additional fluids will be allowed during the 1 h pre- and post-doses. On Day 6, subjects will replicate mealtimes as scheduled on Day 1-5.
# Plasma PK parameters (non-compartmental or compartmental analysis as appropriate) will include, but are not limited to: • Following single dose: Tmax, tlag, Cmax, AUC0-4, AUC0-last, t1/2, AUC0-inf, lambda z, %AUCext, CL/F, Vz/F, Cmax/D, AUC0-last/D, AUC0-inf/D and MRT (D is dose) • After repeated doses: Ctrough, Ctrough/D • Following repeated doses on last day: Tmax, Cmax, Cavg, tlag, t1/2, AUC0-4, AUC0-last; AUC0-inf, lambda z, %AUCext, CLss/F, Vzss/F, MRT, PTF, Rac(AUC), Rac(Cmax), Cmax/D, AUClast/D, AUC0-inf/D and Rae (accumulation ratio).
# [3] = Single 801 mg dose, double-blinded, cross-over study of LYT-100 vs pirfenidone in healthy volunteers (PK and safety); conditions: for Cmax (ng/mL), Mean / AUC0-t (hr*ng/mL), Mean / tmax (hr), Median / % AUC extrap, Mean / AUC(inf) (hr*ng/mL), Mean / Kel (1/hr), Mean / t1/2 (hr), Mean: fed; for Cmax (ng/mL), Mean: healthy volunteers; for Cmax (ng/mL), Mean / AUC0-t (hr*ng/mL), Mean / tmax (hr), Median: n = 24
# Description: Following screening, eligible healthy volunteer subjects were admitted to a single clinical study site and were randomized to 1 of 2 treatment sequences. […] In each period, a standardized breakfast was provided to subjects prior to administration of study drug (to compare the PK profiles in the clinically relevant fed state) and plasma samples were collected over a 48-hour period after dosing for evaluation of PK. Dosing between the 2 periods was separated by a minimum of 7 days. Subjects completed the study upon completion of the 48-hour post-dose assessments following dosing period 2.
# All capsules were identical in size, shape, and external color.
# [4] = Phase 1 food effect study Part 2 (Cohort 5), single 500 mg dose fed vs fasted; format: in vivo, human; conditions: LYT-100 @500 mg single dose
# Protocol: The comparison will be based on Day 1, Day 2 and Day 3 PK plasma samples after the first dose of study drug on Day 1 under fast and fed conditions of Part 2.
# Subjects will be admitted to the CRU on Day-1 and will fast overnight for at least 10 h.
# [5] = 200 mg SD-559 (pirfenidone) BID, Huang et al.; in ng/mL; cited from earlier work
# [6] = humans, cited from earlier work
# [7] = after LYT-100 801 mg, metabolite/LYT-100
# [8] = after LYT-100 801 mg, metabolite/LYT-100, molecular weight corrected
# [9] = Treatment = LYT-100, single 801 mg oral dose
# [10] = Treatment = LYT-100, single 801 mg oral dose, n = 24 (LYT-110 n = 23)
# [11] = Treatment = Pirfenidone, single 801 mg oral dose
# [12] = Treatment = Pirfenidone, single 801 mg oral dose, n = 24 (LYT-111 n = 19)
# [13] = after Pirfenidone (LYT-101) 801 mg, metabolite/LYT-101
# [14] = after Pirfenidone (LYT-101) 801 mg, metabolite/LYT-101, molecular weight corrected
smiles,measurement,setting,value
"[2H]C([2H])([2H])c1ccc(=O)n(-c2ccc(O)cc2)c1 [SD-1051, d3-4′-hydroxy-pirfenidone]","Ratio of exposure (AUC), Group 4 (LYT-100 at 750 mg/kg) analyte / Group 5 (SD-559 at 750 mg/kg) analyte","[1]; Day 1, Female rats",21.77
same,"Ratio of exposure (AUC), Group 4 (LYT-100 at 750 mg/kg) analyte / Group 5 (SD-559 at 750 mg/kg) analyte","[1]; Day 1, Male rats",34.51
same,"Ratio of exposure (AUC), Group 4 (LYT-100 at 750 mg/kg) analyte / Group 5 (SD-559 at 750 mg/kg) analyte","[1]; Day 28, Female rats",38.04
same,Dose proportionality of AUC0-24 over 250 to 750 mg/kg,[1],increased dose proportionally on Day 1
same,Dose proportionality of Cmax over 250 to 750 mg/kg,[1],less than dose proportional
same,Accumulation ratios (AUC96-108/AUC0-12) across all dose groups,[2],~1
same,Average ratio to the parent (M/P) by AUC,"[2]; Cohort 4, 750 mg BID",0.0017 (0.0012-0.0022)
same,Average ratio to the parent (M/P) by AUC,"[2]; Cohort 6, 1000 mg BID",0.0037 (0.0030-0.0058)
same,Quantifiability in human plasma,[3]; after LYT-100,not quantifiable
same,"Metabolite/Parent Ratio, AUC0-∞, Median",[3]; [7],0.1%
same,"Metabolite/Parent Ratio, Cmax, Median",[3]; [7],0.1%
same,"Metabolite/Parent Ratio, AUC0-∞, Mean",[3]; [8],0.1%
same,"Metabolite/Parent Ratio, Cmax, Mean",[3]; [8],0.1%
"O=C(O)c1ccc(=O)n(-c2ccccc2)c1 [LYT-105, 5-carboxy-pirfenidone]","AUC, % Change Fed vs Fasted",[4],−5%
same,"Cmax, % Change Fed vs Fasted",[4],−1.7%
same,"Tmax, % Change Fed vs Fasted",[4],+33%
same,observed Cmax,[5],1476
same,Plasma exposure as percent of the exposure to pirfenidone,[6]; Huang 2013,approximately 50%
same,Share of recovered drug material excreted as this metabolite,"[6]; urine, after oral pirfenidone",> 95%
same,"Ratio of exposure (AUC), Group 4 (LYT-100 at 750 mg/kg) analyte / Group 5 (SD-559 at 750 mg/kg) analyte","[1]; Day 1, Female rats",0.49
same,"Ratio of exposure (AUC), Group 4 (LYT-100 at 750 mg/kg) analyte / Group 5 (SD-559 at 750 mg/kg) analyte","[1]; Day 1, Male rats",0.45
same,"Ratio of exposure (AUC), Group 4 (LYT-100 at 750 mg/kg) analyte / Group 5 (SD-559 at 750 mg/kg) analyte","[1]; Day 28, Female rats",0.71
same,"Ratio of exposure (AUC), Group 4 (LYT-100 at 750 mg/kg) analyte / Group 5 (SD-559 at 750 mg/kg) analyte","[1]; Day 28, Male rats",0.57
same,Cmax in rat relative to human,[1],~9 fold
same,Exposure in rats relative to humans after 28 days of daily dosing,[1],~7 fold
same,Exposure (AUC) in rat relative to human,[1],about 8 fold
same,Dose proportionality of AUC0-24 over 250 to 750 mg/kg,[1],dose proportional
same,Dose proportionality of Cmax over 250 to 750 mg/kg,[1],approximately dose proportional
same,Lower Cmax and exposure of SD-789 after SD-560 than of SD-789 after SD-559,"[1]; rats, 750 mg/kg each",approximately 50%
same,Accumulation ratios (AUC96-108/AUC0-12) across all dose groups,[2],~1
same,Dose dependence of AUC96-108 across all dose Cohorts,"[2]; 100 to 1000 mg BID, FIG. 25",linear dose proportionality
same,Average ratio to the parent (M/P) by AUC,"[2]; Cohort 4, 750 mg BID",0.45 (0.37-0.50)
same,Average ratio to the parent (M/P) by AUC,"[2]; Cohort 6, 1000 mg BID",0.56 (0.44-0.66)
same,observed Cmax,[2]; LYT-100 100 mg BID with food,567 ng/mL
same,% difference (vs. 200 mg SD-559) Cmax,"[2]; LYT-100 100 mg vs Huang et al. data extrapolated assuming dose proportionality, LYT-100 vs SD-559, SD-789 vs SD-789",−23%
same,observed Cmax,[2]; LYT-100 250 mg BID with food,1170 ng/mL
same,% difference (vs. 200 mg SD-559) Cmax,[2]; LYT-100 250 mg vs Huang et al. data extrapolated assuming dose proportionality,−37%
same,observed Cmax,[2]; LYT-100 500 mg BID with food,2360 ng/mL
same,% difference (vs. 200 mg SD-559) Cmax,[2]; LYT-100 500 mg vs Huang et al. data extrapolated assuming dose proportionality,−36%
same,observed Cmax,[2]; LYT-100 750 mg BID with food,3370 ng/mL
same,% difference (vs. 200 mg SD-559) Cmax,[2]; LYT-100 750 mg vs Huang et al. data extrapolated assuming dose proportionality,−39%
same,observed Cmax,[2]; LYT-100 1000 mg BID with food,4940 ng/mL
same,% difference (vs. 200 mg SD-559) Cmax,[2]; LYT-100 1000 mg vs Huang et al. data extrapolated assuming dose proportionality,−33%
same,Average ratio of metabolite to the parent (mtp) by AUC,"[2]; MAD study, all doses",0.45
same,"Cmax (ng/mL), Mean",[3]; [9],3970 ng/mL
same,"AUC0-t (hr*ng/mL), Mean",[3]; [9],23090 ng·h/mL
same,"tmax (hr), Median",[3]; [9],2.50 h
same,"% AUC extrap, Mean",[3]; [10],1.13%
same,"AUC(inf) (hr*ng/mL), Mean",[3]; [10],23350 ng·h/mL
same,"Kel (1/hr), Mean",[3]; [10],0.262 h⁻¹
same,"t1/2 (hr), Mean",[3]; [10],2.91 h
same,"Cmax (ng/mL), Mean",[3]; [11],5241 ng/mL
same,"AUC0-t (hr*ng/mL), Mean",[3]; [11],26932 ng·h/mL
same,"tmax (hr), Median",[3]; [11],3.00 h
same,"% AUC extrap, Mean",[3]; [12],0.843%
same,"AUC(inf) (hr*ng/mL), Mean",[3]; [12],27159 ng·h/mL
same,"Kel (1/hr), Mean",[3]; [12],0.288 h⁻¹
same,"t1/2 (hr), Mean",[3]; [12],2.55 h
same,"Metabolite/Parent Ratio, AUC0-∞, Median",[3]; [7],32.3%
same,"Metabolite/Parent Ratio, Cmax, Median",[3]; [7],33.5%
same,"Metabolite/Parent Ratio, AUC0-∞, Mean",[3]; [8],43.8%
same,"Metabolite/Parent Ratio, Cmax, Mean",[3]; [8],43.3%
same,"Metabolite/Parent Ratio, AUC0-∞, Mean","[3]; after LYT-100 801 mg, metabolite/LYT-100, molecular weight corrected, listed as 5-carboxy-pirfenidone",43.8%
same,"Metabolite/Parent Ratio, AUC0-∞, Median",[3]; [13],53.7%
same,"Metabolite/Parent Ratio, Cmax, Median",[3]; [13],57.5%
same,"Metabolite/Parent Ratio, AUC0-∞, Mean",[3]; [14],65.9%
same,"Metabolite/Parent Ratio, Cmax, Mean",[3]; [14],68.1%
same,"Metabolite/Parent Ratio, AUC0-∞, Mean","[3]; after Pirfenidone (LYT-101) 801 mg, metabolite/LYT-101, molecular weight corrected, listed as 5-carboxy-pirfenidone",65.9%
same,Reduction of AUC after LYT-100 relative to pirfenidone,[3]; single 801 mg dose each,approximately 15%
same,Reduction of Cmax after LYT-100 relative to pirfenidone,[3]; single 801 mg dose each,~25%
"Cc1ccc(=O)n(-c2ccc(O)cc2)c1 [SD-1050, 4′-hydroxy-pirfenidone]","Metabolite/Parent Ratio, Cmax, Median",[3]; [13],0.0%
same,"Metabolite/Parent Ratio, Cmax, Mean",[3]; [14],0.0%
"[2H]C([2H])(O)c1ccc(=O)n(-c2ccccc2)c1 [SD-790, d2-5-hydroxymethyl-pirfenidone]","Ratio of exposure (AUC), Group 4 (LYT-100 at 750 mg/kg) analyte / Group 5 (SD-559 at 750 mg/kg) analyte","[1]; Day 1, Female rats",2.50
same,"Ratio of exposure (AUC), Group 4 (LYT-100 at 750 mg/kg) analyte / Group 5 (SD-559 at 750 mg/kg) analyte","[1]; Day 1, Male rats",2.22
same,"Ratio of exposure (AUC), Group 4 (LYT-100 at 750 mg/kg) analyte / Group 5 (SD-559 at 750 mg/kg) analyte","[1]; Day 28, Female rats",2.59
same,"Ratio of exposure (AUC), Group 4 (LYT-100 at 750 mg/kg) analyte / Group 5 (SD-559 at 750 mg/kg) analyte","[1]; Day 28, Male rats",2.54
same,Cmax in rat relative to human,[1],~1825 fold
same,Exposure in rats relative to humans after 28 days of daily dosing,[1],~1600 fold
same,Exposure (AUC) in rat relative to human,[1],about 1250 fold
same,Dose proportionality of AUC0-24 over 250 to 750 mg/kg,[1],dose proportional
same,Dose proportionality of Cmax over 250 to 750 mg/kg,[1],dose proportional
same,Exposure and Cmax vs the non-deuterated corresponding metabolite (SD-788) from SD-559,"[1]; rats, 750 mg/kg each, all days, both genders",almost twice
same,Accumulation ratios (AUC96-108/AUC0-12) across all dose groups,[2],~1
same,Average ratio to the parent (M/P) by AUC,"[2]; Cohort 4, 750 mg BID",0.0025 (0.0020-0.0029)
same,Average ratio to the parent (M/P) by AUC,"[2]; Cohort 6, 1000 mg BID",0.0028 (0.0018-0.0038)
same,"Cmax (ng/mL), Mean",[3]; [9],20.6 ng/mL
same,"AUC0-t (hr*ng/mL), Mean",[3]; [9],111 ng·h/mL
same,"tmax (hr), Median",[3]; [9],2.50 h
same,"% AUC extrap, Mean",[3]; [10],10.1%
same,"AUC(inf) (hr*ng/mL), Mean",[3]; [10],124 ng·h/mL
same,"Kel (1/hr), Mean",[3]; [10],0.294 h⁻¹
same,"t1/2 (hr), Mean",[3]; [10],2.76 h
same,"Metabolite/Parent Ratio, AUC0-∞, Median",[3]; [7],0.2%
same,"Metabolite/Parent Ratio, Cmax, Median",[3]; [7],0.2%
same,"Metabolite/Parent Ratio, AUC0-∞, Mean",[3]; [8],0.2%
same,"Metabolite/Parent Ratio, Cmax, Mean",[3]; [8],0.2%
"O=c1ccc(CO)cn1-c1ccccc1 [SD-788, 5-hydroxymethyl-pirfenidone]",Formation greater in terms of overall systemic exposure (AUC) after administration of LYT-100,"[3]; LYT-100 vs pirfenidone, single 801 mg dose",approximately 50%
same,"Cmax (ng/mL), Mean",[3]; [11],17.1 ng/mL
same,"AUC0-t (hr*ng/mL), Mean",[3]; [11],75.8 ng·h/mL
same,"tmax (hr), Median",[3]; [11],2.50 h
same,"% AUC extrap, Mean",[3]; [12],10.3%
same,"AUC(inf) (hr*ng/mL), Mean",[3]; [12],89.7 ng·h/mL
same,"Kel (1/hr), Mean",[3]; [12],0.367 h⁻¹
same,"t1/2 (hr), Mean",[3]; [12],2.04 h
same,"Metabolite/Parent Ratio, AUC0-∞, Median",[3]; [13],0.2%
same,"Metabolite/Parent Ratio, Cmax, Median",[3]; [13],0.2%
same,"Metabolite/Parent Ratio, AUC0-∞, Mean",[3]; [14],0.2%
same,"Metabolite/Parent Ratio, Cmax, Mean",[3]; [14],0.2%
